Laboratory results taken from ChEMBL document CHEMBL3885881, “DrugMatrix”.

Species on record: Rattus norvegicus
Assay: DrugMatrix - Regimen: Daily Repeat
Format: toxicity, organism-based, Sprague-Dawley
Design: regimen Daily Repeat, gender Male, age 6-8 weeks
Conditions: in vivo, ip, 10 mg/kg, route intraperitoneal, dose level High, vehicle 100 % SALINE; for ALANINE AMINOTRANSFERASE / ALBUMIN / ALKALINE PHOSPHATASE / ASPARTATE AMINOTRANSFERASE / BLOOD UREA NITROGEN / CHLORIDE / CHOLESTEROL / CREATINE PHOSPHOKINASE / CREATININE / GLUCOSE / LACTATE DEHYDROGENASE / LIPASE / PHOSPHORUS / SODIUM / TOTAL BILIRUBIN / TOTAL PROTEIN / URIC ACID / POTASSIUM: tissue Plasma
[1] = 120 h, tissue Blood, time 5 day

In the case of COBALTOUS CHLORIDE, the ABSOLUTE EOSINOPHIL [1] is reported as 74 cells/µL, the ABSOLUTE LYMPHOCYTE [1] is reported as 8680 cells/µL and the ABSOLUTE MONOCYTE [1] is reported as 210 cells/µL. It also gave an ABSOLUTE SEGMENTED NEUTROPHIL [1] of 1660 cells/µL, a BASOPHIL [1] of 0.44% and an EOSINOPHIL [1] of 0.68%. The “ERYTHROCYTE COUNT” value [1] was 7.83 x10E6/uL, the HEMATOCRIT [1] was 48.96% and the HEMOGLOBIN [1] was 15.82 G/DL. For the same sequence, the “LEUKOCYTE COUNT” value [1] was 10.72 x10E3/uL, the LYMPHOCYTE [1] was 81.38% and the “MEAN CORPUSCULAR HEMOGLOBIN” value [1] was 20.22 pg. The “MEAN CORPUSCULAR HEMOGLOBIN CONCENTRATION” value [1] was 32.34 G/DL, the “MEAN CORPUSCULAR VOLUME” value [1] was 62.58 fL and the MONOCYTE [1] was 1.94%. For the same sequence, the NEUTROPHIL [1] was 15.1%, the “PLATELET COUNT” value [1] was 1648.2 x10E3/uL and the “ALANINE AMINOTRANSFERASE” value (120 h, time 5 day) was 27.2 u/L. For the same sequence, the ALBUMIN (120 h, time 5 day) was 3.7 G/DL, the “ALKALINE PHOSPHATASE” value (120 h, time 5 day) was 212.6 u/L and the “ASPARTATE AMINOTRANSFERASE” value (120 h, time 5 day) was 86.6 u/L. For the same sequence, the “BLOOD UREA NITROGEN” value (120 h, time 5 day) was 17.2 mg/dL, the CHLORIDE (120 h, time 5 day) was 110.4 MEQ/L and the CHOLESTEROL (120 h, time 5 day) was 49.8 mg/dL. For the same sequence, the “CREATINE PHOSPHOKINASE” value (120 h, time 5 day) was 277.6 u/L, the CREATININE (120 h, time 5 day) was 0.56 mg/dL and the GLUCOSE (120 h, time 5 day) was 125.8 mg/dL. For the same sequence, the “LACTATE DEHYDROGENASE” value (120 h, time 5 day) was 60.2 u/L, the LIPASE (120 h, time 5 day) was 31.2 u/L and the PHOSPHORUS (120 h, time 5 day) was 11.88 mg/dL. The SODIUM (120 h, time 5 day) was 148.6 MEQ/L, the “TOTAL BILIRUBIN” value (120 h, time 5 day) was 0.26 mg/dL and the “TOTAL PROTEIN” value (120 h, time 5 day) was 6.26 G/DL. For the same sequence, the “URIC ACID” value (120 h, time 5 day) was 1.38 mg/dL, the ABSOLUTE BASOPHIL ([…], tissue Blood, time 14 day) was 72 cells/µL and the ABSOLUTE EOSINOPHIL ([…], tissue Blood, time 14 day) was 76 cells/µL. For the same sequence, the ABSOLUTE LYMPHOCYTE ([…], tissue Blood, time 14 day) was 8200 cells/µL, the ABSOLUTE MONOCYTE ([…], tissue Blood, time 14 day) was 260 cells/µL and the ABSOLUTE SEGMENTED NEUTROPHIL ([…], tissue Blood, time 14 day) was 1320 cells/µL. For the same sequence, the BASOPHIL ([…], tissue Blood, time 14 day) was 0.66%, the EOSINOPHIL ([…], tissue Blood, time 14 day) was 0.8% and the “ERYTHROCYTE COUNT” value ([…], tissue Blood, time 14 day) was 8.58 x10E6/uL. The HEMATOCRIT ([…], tissue Blood, time 14 day) was 54.6%, the HEMOGLOBIN ([…], tissue Blood, time 14 day) was 17.66 G/DL and the “LEUKOCYTE COUNT” value ([…], tissue Blood, time 14 day) was 9.97 x10E3/uL. For the same sequence, the LYMPHOCYTE ([…], tissue Blood, time 14 day) was 81.92%, the “MEAN CORPUSCULAR HEMOGLOBIN” value ([…], tissue Blood, time 14 day) was 20.62 pg and the “MEAN CORPUSCULAR HEMOGLOBIN CONCENTRATION” value ([…], tissue Blood, time 14 day) was 32.34 G/DL. The MONOCYTE ([…], tissue Blood, time 14 day) was 2.54%, the NEUTROPHIL ([…], tissue Blood, time 14 day) was 13.72% and the “PLATELET COUNT” value ([…], tissue Blood, time 14 day) was 1213.6 x10E3/uL. The ABSOLUTE BASOPHIL ([…], tissue Blood, time 28 day) was 170 cells/µL, the ABSOLUTE EOSINOPHIL ([…], tissue Blood, time 28 day) was 160 cells/µL and the ABSOLUTE LYMPHOCYTE ([…], tissue Blood, time 28 day) was 8960 cells/µL. For the same sequence, the ABSOLUTE MONOCYTE ([…], tissue Blood, time 28 day) was 240 cells/µL, the ABSOLUTE SEGMENTED NEUTROPHIL ([…], tissue Blood, time 28 day) was 2230 cells/µL and the BASOPHIL ([…], tissue Blood, time 28 day) was 1.38%. For the same sequence, the EOSINOPHIL ([…], tissue Blood, time 28 day) was 1.23%, the “ERYTHROCYTE COUNT” value ([…], tissue Blood, time 28 day) was 9.9 x10E6/uL and the HEMATOCRIT ([…], tissue Blood, time 28 day) was 61.68%. The HEMOGLOBIN ([…], tissue Blood, time 28 day) was 19.49 G/DL, the “LEUKOCYTE COUNT” value ([…], tissue Blood, time 28 day) was 11.78 x10E3/uL and the LYMPHOCYTE ([…], tissue Blood, time 28 day) was 76.07%. For the same sequence, the “MEAN CORPUSCULAR HEMOGLOBIN” value ([…], tissue Blood, time 28 day) was 19.7 pg, the “MEAN CORPUSCULAR HEMOGLOBIN CONCENTRATION” value ([…], tissue Blood, time 28 day) was 31.56 G/DL and the MONOCYTE ([…], tissue Blood, time 28 day) was 2.09%. For the same sequence, the NEUTROPHIL ([…], tissue Blood, time 28 day) was 19.02%, the “PLATELET COUNT” value ([…], tissue Blood, time 28 day) was 1119.7 x10E3/uL and the “ALANINE AMINOTRANSFERASE” value ([…], time 14 day) was 29 u/L. The ALBUMIN ([…], time 14 day) was 3.74 G/DL, the “ALKALINE PHOSPHATASE” value ([…], time 14 day) was 189.6 u/L and the “ASPARTATE AMINOTRANSFERASE” value ([…], time 14 day) was 91.8 u/L. The “BLOOD UREA NITROGEN” value ([…], time 14 day) was 14.6 mg/dL, the CHLORIDE ([…], time 14 day) was 112 MEQ/L and the CHOLESTEROL ([…], time 14 day) was 48.8 mg/dL. For the same sequence, the “CREATINE PHOSPHOKINASE” value ([…], time 14 day) was 182.6 u/L, the CREATININE ([…], time 14 day) was 0.52 mg/dL and the GLUCOSE ([…], time 14 day) was 124.8 mg/dL. For the same sequence, the “LACTATE DEHYDROGENASE” value ([…], time 14 day) was 103.2 u/L, the LIPASE ([…], time 14 day) was 22 u/L and the POTASSIUM ([…], time 14 day) was 6.24 MEQ/L. The SODIUM ([…], time 14 day) was 149.8 MEQ/L, the “TOTAL BILIRUBIN” value ([…], time 14 day) was 0.26 mg/dL and the “TOTAL PROTEIN” value ([…], time 14 day) was 6.68 G/DL. The “URIC ACID” value ([…], time 14 day) was 1.26 mg/dL, the “ALANINE AMINOTRANSFERASE” value ([…], time 28 day) was 38.1 u/L and the ALBUMIN ([…], time 28 day) was 3.64 G/DL. For the same sequence, the “ALKALINE PHOSPHATASE” value ([…], time 28 day) was 126.6 u/L, the “ASPARTATE AMINOTRANSFERASE” value ([…], time 28 day) was 117.5 u/L and the “BLOOD UREA NITROGEN” value ([…], time 28 day) was 15.5 mg/dL. The CHLORIDE ([…], time 28 day) was 110.7 MEQ/L, the CHOLESTEROL ([…], time 28 day) was 27.7 mg/dL and the “CREATINE PHOSPHOKINASE” value ([…], time 28 day) was 386.4 u/L. For the same sequence, the CREATININE ([…], time 28 day) was 0.7 mg/dL, the GLUCOSE ([…], time 28 day) was 88.3 mg/dL and the “LACTATE DEHYDROGENASE” value ([…], time 28 day) was 116.6 u/L. The LIPASE ([…], time 28 day) was 2.8 u/L, the PHOSPHORUS ([…], time 28 day) was 10.92 mg/dL and the POTASSIUM ([…], time 28 day) was 6.81 MEQ/L. For the same sequence, the SODIUM ([…], time 28 day) was 152.5 MEQ/L, the “TOTAL BILIRUBIN” value ([…], time 28 day) was 0.33 mg/dL and the “TOTAL PROTEIN” value ([…], time 28 day) was 6.59 G/DL. The “URIC ACID” value ([…], time 28 day) was 1.31 mg/dL.
